Literature values in publication PMC7439511 (Science Advances, 2020).

Test system: RACK7 (ZMYND8)

Row | RACK7 binding to N-terminal tail of histone H3 | Substance
1 | bind | H3K4me0: H3K4me0 (H3) peptide, amino acids 1 to 21
2 | bind | H3K4me1: H3K4me1 peptide, amino acids 1 to 21
